The record followed here is patent publication US20110144079A1, “ANTIMICROBIAL SYSTEM” (priority 2008, published 2011).

What all share (assay): Broth microdilution MIC/MBC
Holding throughout (type): cell-based
Background: In broth dilution the organism is exposed to a series of concentrations in liquid medium.

One experiment concerns C. tropicalis NCTC 7393. The note with it: Candida tropicalis, NCTC7393; for MBC: C. tropicalis NCTC 7393, 99.9% killing; for MIC: C. tropicalis NCTC 7393, 24 h at 37° C. The method in brief: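 MIC endpoint is the lowest imidazolium salt level (range 0.0000625–1% w/v, two-fold steps in Mueller-Hinton broth) preventing growth after 24 h aerobic incubation at 37 °C with 2×10^5 CFU/ml. MBC is the lowest level giving 99.9% killing when no-growth wells are spread on MHA.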

A further experiment deals with P. mirabilis NCTC 12442. The settings on record: Proteus mirabilis, NCTC12442; for MBC: P. mirabilis NCTC 12442, 99.9% killing; for MIC: P. mirabilis NCTC 12442, 24 h at 37° C. The method in brief:
(§1)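 NCCLS broth microdilution; MHB; salts 0.0000625–1% w/v, 2-fold; final inoculum 2×10^5 CFU/ml; 24 h, 37 °C, aerobic. MBC = 99.9% kill on MHA subculture of no-growth wells, 24 h.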

The next experiment concerns E. coli NCTC 8196. The settings on record: Escherichia coli, NCTC8196; for MBC: E. coli NCTC 8196, 99.9% killing; for MIC: E. coli NCTC 8196, 24 h at 37° C. The method in brief: as §1
The next experiment deals with S. aureus ATCC 29213. The note with it: Staphylococcus aureus, ATCC29213; for MBC: S. aureus ATCC 29213, 99.9% killing; for MIC: S. aureus ATCC 29213, 24 h at 37° C. The gist of the method: as §1
For another experiment, the system named is P. aeruginosa PA01. The note with it: for MIC: P. aeruginosa PA01, 24 h at 37° C.; for MBC: P. aeruginosa PA01, 99.9% killing. The method in brief: as §1
Another experiment relates to B. cenocepacia J2315. The note with it: Burkholderia cenocepacia; for MBC: B. cenocepacia J2315, 99.9% killing; for MIC: B. cenocepacia J2315, 24 h at 37° C. The method in brief:
as §1

Experiment [1] deals with S. epidermidis ATCC 35984. The note with it: for MIC: S. epidermidis ATCC 35984, 24 h at 37° C.; for MBC: ATCC35984, S. epidermidis ATCC 35984, 99.9% killing. The method in brief: as §1
For the next experiment, the system named is K. aerogenes NCTC 7427. The note with it: Klebsiella aerogenes, NCTC7427; for MBC: K. aerogenes NCTC 7427, 99.9% killing; for MIC: K. aerogenes NCTC 7427, 24 h at 37° C. The gist of the method:
as §1

For experiment [2], the system named is S. epidermidis ATCC 12228. The note with it: Staphylococcus epidermidis, ATCC12228; for MBC: S. epidermidis ATCC 12228, 99.9% killing; for MIC: S. epidermidis ATCC 12228, 24 h at 37° C. The method in brief: as §1
Another experiment deals with E-MRSA 15. The note with it: for MBC: E-MRSA 15, 99.9% killing; for MIC: E-MRSA 15, 24 h at 37° C. The method in brief:
as §1

Where [3] appears, read: Pseudomonas aeruginosa, PA01, 24 h, read-out: MIC.
[4] abbreviates: Staphylococcus epidermidis, ATCC35984, 24 h.

Molecules are shown by their SMILES. Where two headings read alike, the source gives them in different places. Marks after values point to notes of the source that are not given here. A value given as a limit tells only on which side of the number the result lay.

`CCCCCCCCCCn1cc[n+](C)c1.[Cl-]` [C10MIMCl, 1-decyl-3-methylimidazolium chloride]: the MBC in the experiment on C. tropicalis NCTC 7393 was 321 µM; in the experiment with P. mirabilis NCTC 12442, 1290 µM; against E. coli NCTC 8196, 1290 µM; in the experiment on S. aureus ATCC 29213, 643 µM; against P. aeruginosa PA01 (Pseudomonas aeruginosa), above 1290 µM; against B. cenocepacia J2315, 1290 µM. The MBC in [1] (Staphylococcus epidermidis) was found to be 160 µM; against K. aerogenes NCTC 7427 it was 1290 µM; in experiment [2], 644 µM; in the experiment with E-MRSA 15, 321 µM. Also, the MIC (usually the smallest concentration in the dilution series that meets the test's criterion for growth inhibition) was 321 µM against C. tropicalis NCTC 7393; 1290 µM against P. mirabilis NCTC 12442; 321 µM in the experiment with E. coli NCTC 8196; 40 µM against S. aureus ATCC 29213; 2415* μM against P. aeruginosa PA01 (listed as 1-alkyl-3-methylimidazolium chlorides 10); above 1290 µM with P. aeruginosa PA01 (setting [3]). The MIC against B. cenocepacia J2315 came out at 1290 µM; in experiment [1] (setting [4]), 40 µM; against K. aerogenes NCTC 7427, 643 µM; in [2] it was 40 µM; with E-MRSA 15, 40 µM.

With `CCCCCCCCCCCCn1cc[n+](C)c1.[Cl-]` [C12MIMCl, 1-dodecyl-3-methylimidazolium chloride], the MBC was 73 µM against C. tropicalis NCTC 7393; 1160 µM in the experiment on P. mirabilis NCTC 12442; 73 µM in the experiment with E. coli NCTC 8196; 36 µM with S. aureus ATCC 29213; 1160 µM in the experiment on P. aeruginosa PA01 (Pseudomonas aeruginosa); 580 µM against B. cenocepacia J2315. The MBC in experiment [1] (Staphylococcus epidermidis) is 73 µM; with K. aerogenes NCTC 7427, 145 µM; in [2] it was 145 µM; against E-MRSA 15, 73 µM. Besides, the MIC is 73 µM in the experiment on C. tropicalis NCTC 7393; 580 µM with P. mirabilis NCTC 12442; 73 µM against E. coli NCTC 8196; 18 µM against S. aureus ATCC 29213; 580 µM in the experiment with P. aeruginosa PA01 (setting [3]); 290 µM in the experiment on B. cenocepacia J2315. Also, the MIC in experiment [1] (setting [4]) stood at 36 µM; with K. aerogenes NCTC 7427, 73 µM; in experiment [2], 36 µM; in the experiment with E-MRSA 15, 18 µM.

With `CCCCCCCCCCCCCCn1cc[n+](C)c1.[Cl-]` [C14MIMCl, 1-tetradecyl-3-methylimidazolium chloride], the MBC amounted to 132 µM in the experiment on C. tropicalis NCTC 7393; 530 µM against P. mirabilis NCTC 12442; 33 µM against E. coli NCTC 8196; 66 µM with S. aureus ATCC 29213; 264 µM against P. aeruginosa PA01 (Pseudomonas aeruginosa); 264 µM in the experiment with B. cenocepacia J2315. For the same compound, the MBC turned out to be 33 µM in [1] (Staphylococcus epidermidis), 66 µM against K. aerogenes NCTC 7427, 33 µM in experiment [2] and 66 µM in the experiment on E-MRSA 15. Further, the MIC was 66 µM in the experiment with C. tropicalis NCTC 7393; 264 µM in the experiment on P. mirabilis NCTC 12442; 33 µM against E. coli NCTC 8196; 16 µM against S. aureus ATCC 29213; 264 µM with P. aeruginosa PA01 (setting [3]); 132 µM in the experiment with B. cenocepacia J2315. For the same compound, the MIC in [1] (listed as 1-alkyl-3-methylimidazolium chlorides 14) came to 7.75 µM; in experiment [1] (setting [4]), 7.7 µM; against K. aerogenes NCTC 7427 it was 33 µM; in [2], 7.7 µM; against E-MRSA 15 it was 16 µM.
